Measurements as given in publication PMC6271077, “Synthesis, Anticancer and Antibacterial Activity of Salinomycin N-Benzyl Amides” (Molecules, 2014).
In brackets after ≈: the same amount, converted by molar mass.

Legend:
[1] = test system: MRSE 459/11; assay: MIC microdilution, hospital MRSE; type: cell-based; settings: Staphylococcus epidermidis; hospital MRSE strain 459/11; read-out: MIC
[2] = test system: S. aureus ATCC 29213; assay: MIC microdilution; type: cell-based; settings: Staphylococcus aureus, ATCC29213; S. aureus ATCC 29213; 18 h, 35 °C; read-out: MIC
[3] = test system: MRSA 462/11; assay: MIC microdilution, hospital MRSA; type: cell-based; settings: Staphylococcus aureus; hospital MRSA strain 462/11; read-out: MIC
[4] = test system: MRSA 456/11; assay: MIC microdilution, hospital MRSA; type: cell-based; settings: Staphylococcus aureus; hospital MRSA strain 456/11; read-out: MIC
[5] = test system: MRSA 537/12; assay: MIC microdilution, hospital MRSA; type: cell-based; settings: Staphylococcus aureus; hospital MRSA strain 537/12; read-out: MIC
[6] = test system: MRSA 522/12; assay: MIC microdilution, hospital MRSA; type: cell-based; settings: Staphylococcus aureus; hospital MRSA strain 522/12; read-out: MIC
[7] = test system: MRSA 585/12; assay: MIC microdilution, hospital MRSA; type: cell-based; settings: Staphylococcus aureus; hospital MRSA strain 585/12; read-out: MIC
[8] = test system: MRSA; assay: MIC microdilution, MRSA strains overall (range given); type: cell-based, Staphylococcus aureus; settings: hospital MRSA strains
[9] = test system: MRSA 572/12; assay: MIC microdilution, hospital MRSA; type: cell-based; settings: Staphylococcus aureus; hospital MRSA strain 572/12; read-out: MIC
[10] = test system: MRSA 586/12; assay: MIC microdilution, hospital MRSA; type: cell-based; settings: Staphylococcus aureus; hospital MRSA strain 586/12; read-out: MIC
[11] = test system: S. epidermidis ATCC 12228; assay: MIC microdilution; type: cell-based; settings: Staphylococcus epidermidis, ATCC12228; S. epidermidis ATCC 12228; 18 h, 35 °C; read-out: MIC
[12] = test system: S. aureus ATCC 29213; assay: Disc-diffusion (GIZ); type: cell-based; settings: 18 h, 35 °C, un: unmeasurable
Source text: (§1) Microorganisms used in this study were as follows: Gram-positive cocci: S. aureus NCTC 4163, S. aureus ATCC 25923, S. aureus ATCC 6538, S. aureus ATCC 29213, S. epidermidis ATCC 12228, S. epidermidis ATCC 35984, Gram-negative rods: E. coli ATCC 10538, E. coli ATCC 25922, E. coli NCTC 8196, P. vulgaris NCTC 4635, P. aeruginosa ATCC 15442, P. aeruginosa NCTC 6749, P. aeruginosa ATCC 27863, B. bronchiseptica ATCC 4617 and yeasts: C. albicans ATCC 10231, C. albicans ATCC 90028, C. parapsilosis ATCC 22019. The other microorganisms used were obtained from the collection of the Department of Pharmaceutical Microbiology, Medical University of Warsaw, Poland.
(§2) Antibacterial activity was examined by the disc-diffusion method under standard conditions using Mueller-Hinton II agar medium (Becton Dickinson, Heidelberg, Germany) according to CLSI (previously NCCLS) guidelines. Antifungal activities were assessed using Muellere Hinton agar + 2% glucose and 0.5 mg/mL Methylene Blue Dye Medium.
(§3) Sterile filter paper discs (9 mm diameter, Whatman No. 3 chromatography paper) were dripped with tested compound solutions (in EtOH) to load […] of a given compound per disc. Dry discs were placed on the surface of appropriate agar medium. The results (diameter of the growth inhibition zone, GIZ) were read after 18 h of incubation at 35 °C.

[13] = test system: S. epidermidis ATCC 12228; assay: Disc-diffusion (GIZ); type: cell-based; settings: 18 h, 35 °C, un: unmeasurable
Source text: as §1, §2, §3

[14] = test system: S. epidermidis ATCC 35984; assay: Disc-diffusion (GIZ); type: cell-based; settings: 18 h, 35 °C, un: unmeasurable
Source text: as §1, §2, §3

[15] = test system: S. aureus ATCC 4163; assay: Disc-diffusion (GIZ); type: cell-based; settings: 18 h, 35 °C, un: unmeasurable
Source text: as §1, §2, §3

[16] = test system: S. aureus ATCC 25923; assay: Disc-diffusion (GIZ); type: cell-based; settings: 18 h, 35 °C, un: unmeasurable
Source text: as §1, §2, §3

[17] = test system: S. aureus ATCC 6538; assay: Disc-diffusion (GIZ); type: cell-based; settings: 18 h, 35 °C, un: unmeasurable
Source text: as §1, §2, §3

[18] = test system: S. aureus ATCC 4163; assay: MIC microdilution; type: cell-based; settings: Staphylococcus aureus, ATCC4163; S. aureus ATCC 4163; 18 h, 35 °C; read-out: MIC
[19] = test system: S. aureus ATCC 6538; assay: MIC microdilution; type: cell-based; settings: Staphylococcus aureus, ATCC6538; S. aureus ATCC 6538; 18 h, 35 °C; read-out: MIC
[20] = test system: MRSA 514/11; assay: MIC microdilution, hospital MRSA; type: cell-based; settings: Staphylococcus aureus; hospital MRSA strain 514/11; read-out: MIC
[21] = test system: MRSE 488/11; assay: MIC microdilution, hospital MRSE; type: cell-based; settings: Staphylococcus epidermidis; hospital MRSE strain 488/11; read-out: MIC
[22] = test system: MRSE 489/11; assay: MIC microdilution, hospital MRSE; type: cell-based; settings: Staphylococcus epidermidis; hospital MRSE strain 489/11; read-out: MIC
[23] = test system: MRSE 467/11; assay: MIC microdilution, hospital MRSE; type: cell-based; settings: Staphylococcus epidermidis; hospital MRSE strain 467/11; read-out: MIC
[24] = test system: MRSE 461/11; assay: MIC microdilution, hospital MRSE; type: cell-based; settings: Staphylococcus epidermidis; hospital MRSE strain 461/11; read-out: MIC
[25] = test system: MRSA 452/11; assay: MIC microdilution, hospital MRSA; type: cell-based; settings: Staphylococcus aureus; hospital MRSA strain 452/11; read-out: MIC
[26] = test system: MRSA 573/12; assay: MIC microdilution, hospital MRSA; type: cell-based; settings: Staphylococcus aureus; hospital MRSA strain 573/12; read-out: MIC
[27] = test system: MRSE 466/11; assay: MIC microdilution, hospital MRSE; type: cell-based; settings: Staphylococcus epidermidis; hospital MRSE strain 466/11; read-out: MIC
[28] = test system: MRSE 469/11; assay: MIC microdilution, hospital MRSE; type: cell-based; settings: Staphylococcus epidermidis; hospital MRSE strain 469/11; read-out: MIC
[29] = test system: MRSE 468/11; assay: MIC microdilution, hospital MRSE; type: cell-based; settings: Staphylococcus epidermidis; hospital MRSE strain 468/11; read-out: MIC

Structure (SMILES): O=C(O)c1cn(C2CC2)c2cc(N3CCNCC3)c(F)cc2c1=O [ciprofloxacin, reference compound]
- MIC [1]: 16 µg/mL (≈ 48.3 µM)
- MIC [2]: 0.5 µg/mL (≈ 1.51 µM)
- MIC [3]: 64 µg/mL (≈ 193 µM)
- MIC [4]: 32 µg/mL (≈ 96.6 µM)
- MIC [5]: 64 µg/mL (≈ 193 µM)
- MIC [6]: 32 µg/mL (≈ 96.6 µM)
- MIC [7]: 64 µg/mL (≈ 193 µM)
- MIC (range over MRSA strains) [8]: 32 to 64 µg/mL
- MIC [9]: 64 µg/mL (≈ 193 µM)
- MIC [10]: 64 µg/mL (≈ 193 µM)
- MIC [11]: 0.25 µg/mL (≈ 0.754 µM)
- GIZ [12]: 22 mm
- GIZ [13]: 30 mm
- GIZ [14]: 32 mm
- GIZ [15]: 26 mm
- GIZ [16]: 26 mm
- GIZ [17]: 28 mm
- MIC [18]: 0.25 µg/mL (≈ 0.754 µM)
- MIC [19]: 0.25 µg/mL (≈ 0.754 µM)
- MIC [20]: 32 µg/mL (≈ 96.6 µM)
- MIC [21]: 16 µg/mL (≈ 48.3 µM)
- MIC [22]: 0.25 µg/mL (≈ 0.754 µM)
- MIC [23]: 16 µg/mL (≈ 48.3 µM)
- MIC [24]: 0.25 µg/mL (≈ 0.754 µM)
- MIC [25]: 32 µg/mL (≈ 96.6 µM)
- MIC [26]: 32 µg/mL (≈ 96.6 µM)
- MIC [27]: 2 µg/mL (≈ 6.04 µM)
- MIC [28]: 8 µg/mL (≈ 24.1 µM)
- MIC [29]: 16 µg/mL (≈ 48.3 µM)
